Measurements taken from PMC6906394, “Radiomodifying action, Pharmacokinetic and Biodistribution of Ethyl 3, 4, 5-trihydroxybenzoate-Implication in development of radiomitigator” (Scientific Reports, 2019).
“Also recorded” adds a separate entry of the source. Read-outs that look alike come from different tables or passages of the source.

Legend:
[1] = Plasma pharmacokinetics of GAE after single oral administration (HPLC, non-compartmental); type: in vivo, mice; conditions: 200 mg/kg b.wt oral; for Cmax / AUC(0-t) / Tmax / half-life / AUC: 200 mg/kg; for Kel: in 1/min; for AUC: read-out: AUC0-α (converted)
Description: The developed method was successfully employed to determine GAE concentration in mouse plasma and tissue samples after single oral administration of GAE at a single dose (200 mg/kg body weight) in GAE and Radiation + GAE (R + GAE) treated group. […] Pharmacokinetic parameter analysis is presented in (Table 2, Table 3).
(§1) Black C57BL/6 male mice weighing 28–30 g were maintained at the Institutional Animal Experimental Facility. Animals were fed according to standard chow diet having free access to food and water ad libitum. The environmental condition was maintained at room temperature (22 ± 2 °C), relative humidity (45–60%) and 12 h dark/light cycle controlled facility. In this study, mice were randomly assigned to four different groups (n = 21) i.e untreated control (UC), GAE-treated (GAE), Radiation + GAE (R + GAE), Radiation group (R). Mice fasted overnight with free access to water before being dosed. Isolated GAE from leaves was dissolved with distilled water and ethanol in (7:3 v/v) and administered orally at a dose of 200 mg/kg body weight to GAE-treated and R + GAE treated groups only. The experiment was carried out in accordance to regulation and guideline of the, Committee for the purpose of control and supervision of Experiments on animals (CPCSEA), and study was approved by Institutional Animal Experimental Committee (IAEC), Institute of Nuclear Medicine & Allied Science, Delhi, India.
Group I untreated control (UC), Group II GAE-treated (GAE), Group III Radiation + GAE (R + GAE) and Group IV Radiation (R) exposed. The GAE was administered orally 15 min post irradiation. The whole-body radiation (5 Gy) was carried out using Bhabahtron II, Telecobalt machine, Panacea medical technology, Bangalore. The mice exposed at a dose rate of 0.961 Gy/min at field 35 × 35 cm^2 and the distance maintained from the source was 80 cm.
Blood and tissues samples of mice were collected at 15 min, 30 min, 1 h, 2 h, 4 h, 8 h and 24 h after GAE administration (3mice per time). Blood was obtained from retro orbital plexus of mice and collected in heparinized eppendorf tubes, followed by centrifugation at 2500 g for 15 min. The resulting plasma layer was separated and stored in tubes at −20 °C for further analysis. Tissue samples (brain, heart, liver, kidney, and spleen) were weighed and put into the normal saline solution to remove the blood by blotting on filter paper and were minced and homogenized with physiological saline solution (1:2 w/v) thoroughly in an ice bath. The homogenates were stored at −80 °C until the analysis.
Aliquot of plasma sample (100 µL) dispensed in standing vial deproteinized with ACN (200 µL) containing the IS (100 ng/mL) and centrifuged at 2500 g for 15 min at 4 °C. The supernatant was collected transferred to a clean glass tube, reconstituted with 200 µL mobile phase vortexed mixed for 2 min and centrifuged at 2500 g for 5 min. Following this, a 20 µL aliquot of supernatant was injected into the HPLC system for analysis.
GAE was separated on the high-performance liquid chromatography (HPLC), SPD-10A consisting of binary HPLC pump, ultraviolet detector, and a Rheodyne manual injector equipped with a 20 µl loop (Shimadzu, Japan). Separation was achieved on Kinetex Biphenyl RP 100 Å column (2.6 µm, 150 × 4.6 mm) (Phenomenex, Torrance) installed with phenyl cartridges (Phenomenex, Torrance). The system was controlled using class VP software (Shimadzu, Japan). The chromatographic separation of GAE was in approximately within 10 min, at room temperature by using the isocratic mobile phase mixture of ACN and 1%OPA (30:70, v/v) with pH maintained at 3.3. 20 µL of the samples were injected at a flow rate of 0.5 mL/min and the wavelength 270 nm was used for detection. […]

NF-kB = assay: Quantification of NF-kB in liver and kidney by indirect ELISA; type: in vivo, mice; conditions: GAE 200 mg/kg oral 15 min after 5 Gy whole body irradiation, p < 0.05, upto 8 h
Description: as §1, with “The experiment was carried out in accordance to regulation and guideline of the, Committee for the purpose of control and supervision of Experiments on animals (CPCSEA), and study was approved by Institutional Animal Experimental Committee (IAEC), Institute of Nuclear Medicine & Allied Science, Delhi, India.” left out
Measurement of NF-kB activity was done in accordance to the manufacturer’s protocol purchased from BD-biosciences. […] After development of colour 50 µl of stop solution was added to the wells and absorbance was recorded at 490 nm. A standard curve was prepared from the data produced from the serial dilution of the pure NF-kB proteins with concentration on the x-axis (log scale) vs absorbance on the Y-axis (linear).

[2] = R + GAE group (60Co-γ 5 Gy, GAE 15 min post irradiation)
[3] = male, C57BL/6, mouse, po, GAE treated group
[4] = male, C57BL/6, mouse, po, R + GAE group (60Co-γ 5 Gy, GAE 15 min post irradiation)

Clearance ([1]; GAE treated group): 0.017 ± 0.0005 mL/min
Cmax ([1]; GAE treated group): 4390.85 ± 285.20 ng/mL
Kel ([1]; GAE treated group): 0.026 ± 0.003
Clearance [1, 2]: 0.07 ± 0.01 mL/min
Kel [1, 2]: 0.025 ± 0.02
AUC(0-t) [1, 3]: 2920 ng·h/mL
Tmax [1, 3]: ~15 min
half-life [1, 3]: 26.5 ± 3.2 min
AUC [1, 3]: 2930 ng·h/mL
Cmax ([1]; male, C57BL/6, mouse, po, GAE treated group, read-out: Cmax): 4390 ± 285 ng/mL
AUC(0-t) [1, 4]: 1070 ng·h/mL
Tmax [1, 4]: ~15 min
half-life [1, 4]: 22.4 ± 3.6 min
AUC [1, 4]: 1070 ng·h/mL
Cmax ([1]; male, C57BL/6, mouse, po, R + GAE group (60Co-γ 5 Gy, GAE 15 min post irradiation), read-out: Cmax): 3390 ± 78.1 ng/mL
SMILES: CCOC(=O)c1cc(O)c(O)c(O)c1 [GAE, Ethyl 3,4,5-trihydroxybenzoate]
NF-kB level/expression in liver and kidney compared to irradiated mice (NF-kB): inhibits NF-kB expression; also recorded: significant minimal expression; also recorded: significantly inhibits; also recorded: significantly reduces
